The experiment has as its system 677734-321-R-J1-PDC complex spheroid viability. The experiment in a line: Anticancer human tumor 677734-321-R-J1-PDC patient-derived soft tissue sarcoma cell line growth inhibition [POLQ]. Conditions: for viability, T/C: stronger effect = lower value. In short, it runs like this: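 Growth inhibition in 3D: complex spheroids (tumor PDC, HUVEC, MSC) treated with POLQ inhibitor combinations; where Cmax unknown, highest tested concentration 10 microM, except SN-38 at 1 microM.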

Drawing on PubChem BioAssay AID1963842 (Molecular Pharmacology Branch, DTP, NCI, 2024), this text covers viability, T/C and IC50 for four molecules.

pIC50: −log10 of the molar value. Values joined by “and” are separate entries in the source; they are usually repeats but may differ in a detail not shown here. Identical values can stand only once.
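Further: spheroids exposed to compounds for one week.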
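Wherever viability, T/C is given: 100% = vehicle DMSO treated spheroids.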

For orientation: viability, T/C means the ratio of treated to control. The pIC50 is −log10 of the IC50, conventionally taken in molar units. With `COC1C(OC(N)=O)C(O)C(Oc2ccc3c(O)c(NC(=O)c4ccc(O)c(CC=C(C)C)c4)c(=O)oc3c2C)OC1(C)C` (stereo not drawn), the viability, T/C was 103% [middle of 13 runs] (compound 0.0316 µM); 104% [middle of 13 runs] (compound 0.1 µM); 110% [middle of 13 runs] (compound 0.316 µM); 104% [middle of 13 runs] (compound 1 µM); 106% [middle of 13 runs] (compound 3.16 µM); 106% [middle of 13 runs] (compound 10 µM). For the same molecule, the negative-log IC50 (pIC50) (compound alone, run of 11/27/2023) was less than 5.00.
Consider `COc1cccc(OCCCN)c1-c1cc(Nc2cnc(C#N)cn2)n[nH]1` + Cc1cccc(N(C)C(=O)C2C(O)CCN2c2nc(C)cc(C(F)(F)F)c2C#N)c1, for which the pIC50 is, setting by setting: (curve of first compound, second compound 0.0316 µM) 8.29; (curve of first compound, second compound 0.1 µM) 8.26; (curve of first compound, second compound 0.316 µM) 8.27; (curve of first compound, second compound 1 µM) 8.46; (curve of first compound, second compound 3.16 µM) 8.31; (curve of first compound, second compound 10 µM) more than 8.50. In addition, the viability, T/C (second compound 0.0316 µM, first compound 0.00316 µM) is 80.6%; the viability, T/C (second compound 0.0316 µM, first compound 0.01 µM) was 8.11%; the viability, T/C (second compound 0.0316 µM, first compound 0.0316 µM) is 6.8%; the viability, T/C (second compound 0.0316 µM, first compound 0.1 µM) is 5.31%; the viability, T/C (second compound 0.0316 µM, first compound 0.316 µM) is 4.65%; the viability, T/C (second compound 0.0316 µM, first compound 1 µM) was 4.03%. Further, the viability, T/C is, setting by setting: (second compound 0.1 µM, first compound 0.00316 µM) 89.8%; (second compound 0.1 µM, first compound 0.01 µM) 8.11%; (second compound 0.1 µM, first compound 0.0316 µM) 6.65%; (second compound 0.1 µM, first compound 0.1 µM) 5.48%; (second compound 0.1 µM, first compound 0.316 µM) 6.82%; (second compound 0.1 µM, first compound 1 µM) 4.61%. Also, the viability, T/C is 84.1% (second compound 0.316 µM, first compound 0.00316 µM); 9.52% (second compound 0.316 µM, first compound 0.01 µM); 6.22% (second compound 0.316 µM, first compound 0.0316 µM); 5.29% (second compound 0.316 µM, first compound 0.1 µM); 5.08% (second compound 0.316 µM, first compound 0.316 µM); 4.86% (second compound 0.316 µM, first compound 1 µM). Moreover, the viability, T/C (second compound 1 µM, first compound 0.00316 µM) is 53.9%; the viability, T/C (second compound 1 µM, first compound 0.01 µM) is 8.32%; the viability, T/C (second compound 1 µM, first compound 0.0316 µM) was 6.96%; the viability, T/C (second compound 1 µM, first compound 0.1 µM) was 6.49%; the viability, T/C (second compound 1 µM, first compound 0.316 µM) is 5.31%; the viability, T/C (second compound 1 µM, first compound 1 µM) is 4.98%. For the same molecule, the viability, T/C is 70.3% (second compound 3.16 µM, first compound 0.00316 µM); 16.3% (second compound 3.16 µM, first compound 0.01 µM); 7.33% (second compound 3.16 µM, first compound 0.0316 µM); 5.44% (second compound 3.16 µM, first compound 0.1 µM); 6.24% (second compound 3.16 µM, first compound 0.316 µM); 4.93% (second compound 3.16 µM, first compound 1 µM). For the same molecule, the viability, T/C (second compound 10 µM, first compound 0.00316 µM) is 48.1%; the viability, T/C (second compound 10 µM, first compound 0.01 µM) is 11.5%; the viability, T/C (second compound 10 µM, first compound 0.0316 µM) was 7.44%; the viability, T/C (second compound 10 µM, first compound 0.1 µM) is 5.3%; the viability, T/C (second compound 10 µM, first compound 0.316 µM) was 6.55%; the viability, T/C (second compound 10 µM, first compound 1 µM) was 4.1%.
For `CC1COCCN1c1cc(C2(O)CC3CCC(C2)O3)c2cnn(-c3ccn[nH]3)c2n1` (stereo not drawn), the viability, T/C runs as follows: (compound 0.0316 µM) 81.7% and 83.6% and 51%; (compound 0.1 µM) 51.1% and 44.5% and 17.5%; (compound 0.316 µM) 25.6% and 22.2% and 9.65%; (compound 1 µM) 20.1% and 15.7% and 9.53%; (compound 3.16 µM) 17.1% and 14.3% and 7.61%; (compound 10 µM) 17.9% and 14.2% and 4.79%. Also, the pIC50 (curve of compound) was 6.98 and 7.07 and 7.49.
As for `C=CC(=O)N1CCN(c2nc(=O)n(-c3c(C)ccnc3C(C)C)c3nc(-c4c(O)cccc4F)c(F)cc23)C(C)C1` (stereo not drawn), the viability, T/C is, setting by setting: (compound 0.0316 µM) 100% and 109% and 106%; (compound 0.1 µM) 95.8% and 94.2% and 95.4%; (compound 0.316 µM) 117% and 96.4% and 105%; (compound 1 µM) 101% and 104% and 95.6%; (compound 3.16 µM) 96.5% and 93.2% and 101%; (compound 10 µM) 89% and 64% and 94.1%. Besides, the pIC50 (curve of compound) is less than 5.00.
